From ChEMBL document CHEMBL1201862, “PubChem BioAssay data set” (2004)
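Tested at 5 concentrations; 48 h exposure; 96-well plates; endpoints linearly interpolated, else capped at highest concentration. GI50: concentration for 50% inhibition of growth.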 Activity calls are given as the source filed them. Rule as the data show it: active = GI50 up to about 1.1 µM and inactive = higher.

Key:
Assay in all cases: DTP human tumour cell line panel, 48 h
A549 = test system: A549
XF498 = test system: XF498
CCRF-CEM = test system: CCRF-CEM
NCI-H460 = test system: NCI-H460
SN12C = test system: SN12C
OVCAR-8 = test system: OVCAR-8
HOP-18 = test system: HOP-18
SF-539 = test system: SF-539
NCI-H522 = test system: NCI-H522
KM12 = test system: KM12
OVCAR-3 = test system: OVCAR-3
KM-20L2 = test system: KM-20L2
IGROV-1 = test system: IGROV-1
Malme-3M = test system: Malme-3M
HCT-15 = test system: HCT-15
RPMI-8226 = test system: RPMI-8226
HT-29 = test system: HT-29
DMS-114 = test system: DMS-114
SNB-75 = test system: SNB-75
NCI/ADR-RES = test system: NCI/ADR-RES

With `CN(C)CCNC(=O)c1cccc2[nH]c(-c3ccccn3)nc12` the GI50 (A549) was 36.2 µM (inactive), the GI50 (XF498) was 36.6 µM (inactive) and the GI50 (CCRF-CEM) was 23.5 µM (inactive). For the same compound, the GI50 (NCI-H460) was 20.8 µM (inactive), the GI50 (SN12C) was 34.8 µM (inactive) and the GI50 (OVCAR-8) was 27.9 µM (inactive). The GI50 (HOP-18) was 29 µM (inactive), the GI50 (SF-539) was 43.5 µM (inactive) and the GI50 (NCI-H522) was 25.6 µM (inactive). For the same compound, the GI50 (KM12) was 41.6 µM (inactive), the GI50 (OVCAR-3) was 30.7 µM (inactive) and the GI50 (KM-20L2) was 25.6 µM (inactive). For the same compound, the GI50 (IGROV-1) was 35.1 µM (inactive), the GI50 (Malme-3M) was 24.9 µM (inactive) and the GI50 (HCT-15) was 37.2 µM. The GI50 (RPMI-8226) was 21.7 µM (inactive), the GI50 (HT-29) was 19.6 µM (inactive) and the GI50 (DMS-114) was 27 µM (inactive). For the same compound, the GI50 (SNB-75) was 21.2 µM (inactive) and the GI50 (NCI/ADR-RES) was 26.1 µM (inactive).

In the case of `CCC(C)C1NC(=O)CNC(=O)C2Cc3c([nH]c4cc(O)ccc34)[S+]([O-])CC(NC(=O)CNC1=O)C(=O)NC(CC(=O)O)C(=O)N1CC(O)CC1C(=O)NC(C(C)C(O)CO)C(=O)N2` (stereo not given), the GI50 (A549) was 4.58 µM (inactive), the GI50 (XF498) was 1.16 µM (inactive) and the GI50 (CCRF-CEM) was 6.24 µM (inactive). For the same compound, the GI50 (NCI-H460) was 2.11 µM (inactive), the GI50 (SN12C) was 4.63 µM (inactive) and the GI50 (OVCAR-8) was 3.7 µM (inactive). The GI50 (HOP-18) was 25.8 µM (inactive), the GI50 (SF-539) was 0.45 µM (active) and the GI50 (NCI-H522) was 0.776 µM (active). The GI50 (KM12) was 6.46 µM (inactive), the GI50 (OVCAR-3) was 2.47 µM (inactive) and the GI50 (KM-20L2) was 31.6 µM (inactive). The GI50 (IGROV-1) was 4.39 µM (inactive), the GI50 (Malme-3M) was 1.19 µM (inactive) and the GI50 (HCT-15) was 10.4 µM. The GI50 (RPMI-8226) was 20.3 µM (inactive), the GI50 (HT-29) was 28.8 µM (inactive) and the GI50 (DMS-114) was 0.759 µM (active). The GI50 (SNB-75) was 0.918 µM (active) and the GI50 (NCI/ADR-RES) was 3.97 µM (inactive).

In the case of `CCOC(=O)C(C#N)(Cc1c[nH]c2ccccc12)NC(C)=O` (stereo not given), the GI50 (CCRF-CEM) was > 100 µM (inactive), the GI50 (NCI-H460) was > 100 µM (inactive) and the GI50 (SN12C) was > 100 µM (inactive). For the same compound, the GI50 (OVCAR-8) was > 100 µM (inactive), the GI50 (NCI-H522) was > 100 µM (inactive) and the GI50 (KM12) was > 100 µM (inactive). The GI50 (OVCAR-3) was > 100 µM (inactive), the GI50 (KM-20L2) was > 100 µM (inactive) and the GI50 (IGROV-1) was > 100 µM (inactive). For the same compound, the GI50 (Malme-3M) was > 100 µM (inactive), the GI50 (HCT-15) was over 100 µM and the GI50 (RPMI-8226) was > 100 µM (inactive). For the same compound, the GI50 (HT-29) was > 100 µM (inactive), the GI50 (DMS-114) was > 100 µM (inactive) and the GI50 (SNB-75) was > 100 µM (inactive).

In the case of `OCC#CCNCl`, the GI50 (A549) was > 100 µM (inactive), the GI50 (XF498) was > 53.1 µM (inactive) and the GI50 (CCRF-CEM) was > 100 µM (inactive). The GI50 (NCI-H460) was > 100 µM (inactive), the GI50 (SN12C) was > 100 µM (inactive) and the GI50 (OVCAR-8) was > 100 µM (inactive). For the same compound, the GI50 (HOP-18) was > 100 µM (inactive), the GI50 (SF-539) was > 100 µM (inactive) and the GI50 (NCI-H522) was > 100 µM (inactive). The GI50 (KM12) was > 100 µM (inactive), the GI50 (OVCAR-3) was > 100 µM (inactive) and the GI50 (KM-20L2) was > 100 µM (inactive). For the same compound, the GI50 (IGROV-1) was > 100 µM (inactive), the GI50 (Malme-3M) was > 100 µM (inactive) and the GI50 (HCT-15) was over 100 µM. For the same compound, the GI50 (RPMI-8226) was > 100 µM (inactive), the GI50 (HT-29) was > 28.1 µM (inactive) and the GI50 (DMS-114) was > 100 µM (inactive). The GI50 (SNB-75) was > 100 µM (inactive) and the GI50 (NCI/ADR-RES) was > 100 µM (inactive).
